In ChEMBL document CHEMBL1201862, “PubChem BioAssay data set” (2004):
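All cell lines were grown in 96-well plates and treated with compound for 48 hours. Abbreviation: GI50, concentration required for 50% inhibition of growth.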 The source made the active and inactive calls. Rule as the data show it: active = GI50 up to about 1.1 µM and inactive = higher. Starred links: 1 amine or outer side, 2 acyl side, 3 side chain; linkers in the order of their positions; H or OH if unused. Positions of bridges follow the written chain, without caps; N, C: chain ends. Non-standard residues stand in square brackets, D forms with d. Residues, ends and D or L forms follow the SMILES beside them. ξ: configuration not given here. X11 = CCC(C)C(N[*:1])C(O)CC(=O)O[C@H](C(=O)C(C)C(=O)[*:2])C(C)C; X10 = O=C([C@@H]1CC(O)CN1[*:1])[*:2]; NMeY = CN[C@@H](Cc1ccc(O)cc1)C(=O)O; ξNMeL = CNC(CC(C)C)C(=O)O; ξT = CC(O)C(N)C(=O)O

Legend:
Assay in all cases: NCI anticancer screen, dose series, 48 h
SF-268 = test system: SF-268
OVCAR-3 = test system: OVCAR-3
EKVX = test system: EKVX
786-0 = test system: 786-0
UACC-62 = test system: UACC-62
TK-10 = test system: TK-10
NCI-H460 = test system: NCI-H460
OVCAR-5 = test system: OVCAR-5
IGROV-1 = test system: IGROV-1
SK-MEL-5 = test system: SK-MEL-5
COLO 205 = test system: COLO 205
OVCAR-8 = test system: OVCAR-8
HCT-15 = test system: HCT-15
KM12 = test system: KM12
UACC-257 = test system: UACC-257
HCT-116 = test system: HCT-116
SR = test system: SR
CAKI-1 = test system: CAKI-1
UO-31 = test system: UO-31
SK-OV-3 = test system: SK-OV-3

SMILES | GI50 (SF-268) | GI50 (OVCAR-3) | GI50 (EKVX) | GI50 (786-0) | GI50 (UACC-62) | GI50 (TK-10) | GI50 (NCI-H460) | GI50 (OVCAR-5) | GI50 (IGROV-1) | GI50 (SK-MEL-5) | GI50 (COLO 205) | GI50 (OVCAR-8) | GI50 (HCT-15) [µM] | GI50 (KM12) | GI50 (UACC-257) | GI50 (HCT-116) | GI50 (SR) | GI50 (CAKI-1) | GI50 (UO-31) | GI50 (SK-OV-3)
CCCCCCNC(=O)C1=C(C)NC(C)=C(C(=O)NCCCCCC)C1 | > 100 µM (inactive) | > 100 µM (inactive) | > 100 µM (inactive) | > 100 µM (inactive) | > 100 µM (inactive) | > 100 µM (inactive) | > 100 µM (inactive) | > 100 µM (inactive) | > 100 µM (inactive) | > 100 µM (inactive) | > 100 µM (inactive) | > 100 µM (inactive) | > 100 | > 100 µM (inactive) | > 100 µM (inactive) | > 100 µM (inactive) | 83 µM (inactive) | > 100 µM (inactive) | 63.8 µM (inactive) | > 100 µM (inactive)
CN(CCN(C)CCN(C)C(=O)Cc1ccc(Cl)c(Cl)c1)CCN1CCCC1 | 41.2 µM (inactive) | 63.5 µM (inactive) | 45.4 µM (inactive) | 19.5 µM (inactive) | 4.52 µM (inactive) | 26.1 µM (inactive) | 26.9 µM (inactive) | 37.5 µM (inactive) | 31.1 µM (inactive) | 15.2 µM (inactive) | 16.3 µM (inactive) | 34.9 µM (inactive) | 37.3 | 35 µM (inactive) | 5.11 µM (inactive) | 25 µM (inactive) | 16.5 µM (inactive) | 35.2 µM (inactive) | 1.92 µM (inactive) | 46.8 µM (inactive)
COC1=C(C(c2cc(OC)c(OC)c(OC)c2)c2cc3c(cc2OC)OCO3)C(=O)OC1 (stereo not given) | 24.6 µM (inactive) | 22.3 µM (inactive) | 28.4 µM (inactive) | 26.1 µM (inactive) | 10.6 µM (inactive) | > 44 µM (inactive) | 29.2 µM (inactive) | 34.4 µM (inactive) | 29.4 µM (inactive) | 22.8 µM (inactive) | 23.8 µM (inactive) | 27 µM (inactive) | 20.4 | 11.6 µM (inactive) | > 34.4 µM (inactive) | 7.01 µM (inactive) | 11.1 µM (inactive) | > 48.5 µM (inactive) | 14.2 µM (inactive) | 41.2 µM (inactive)
O=C1c2sc(-c3ccc(F)cc3)cc2-n2cccc21 | 19.9 µM (inactive) | 32.8 µM (inactive) | 1.89 µM (inactive) | 16.9 µM (inactive) | 28.3 µM (inactive) | 21.9 µM (inactive) | 24.9 µM (inactive) | > 100 µM (inactive) | 8.39 µM (inactive) | 38.5 µM (inactive) | 48 µM (inactive) | 27.6 µM (inactive) | 51.3 | 26.4 µM (inactive) | 47.5 µM (inactive) | 18.4 µM (inactive) | 17.8 µM (inactive) | 17.1 µM (inactive) | 22.5 µM (inactive) | 28.2 µM (inactive)
CN(COC(=O)C(C)(C)C)c1nc(N(C)COC(=O)C(C)(C)C)nc(N(C)COC(=O)C(C)(C)C)n1 | 34.8 µM (inactive) | > 100 µM (inactive) | > 100 µM (inactive) | 28.6 µM (inactive) | > 10 µM (inactive) | > 100 µM (inactive) | 60 µM (inactive) | > 100 µM (inactive) | > 100 µM (inactive) | 33.2 µM (inactive) | 16 µM (inactive) | > 10 µM (inactive) | 21 | > 100 µM (inactive) | 98.2 µM (inactive) | 18.8 µM (inactive) | 29.1 µM (inactive) | 36.7 µM (inactive) | > 100 µM (inactive) | > 100 µM (inactive)
O=c1[nH]c2cc(C(F)(F)F)ccc2nc1C(F)(F)F | 40.4 µM (inactive) | 18.5 µM (inactive) | 32.3 µM (inactive) | 37 µM (inactive) | 43.2 µM (inactive) | 49.7 µM (inactive) | > 100 µM (inactive) | 36.9 µM (inactive) | 29.3 µM (inactive) | 13.8 µM (inactive) | 30.9 µM (inactive) | 36 µM (inactive) | 37.2 | 23.7 µM (inactive) | 27.6 µM (inactive) | 27.5 µM (inactive) | 55.8 µM (inactive) | 30.3 µM (inactive) | 30.4 µM (inactive) | 30.4 µM (inactive)
CC(C)(/N=N/C(C)(C)C(=O)NCCO)C(=O)NCCO | > 100 µM (inactive) | > 100 µM (inactive) | > 100 µM (inactive) | > 100 µM (inactive) | > 100 µM (inactive) | > 100 µM (inactive) | > 100 µM (inactive) | > 100 µM (inactive) | > 100 µM (inactive) | > 100 µM (inactive) | > 100 µM (inactive) | > 100 µM (inactive) | > 100 | > 100 µM (inactive) | > 100 µM (inactive) | > 100 µM (inactive) | > 100 µM (inactive) | > 100 µM (inactive) | > 100 µM (inactive) | > 100 µM (inactive)
Cc1ncc([N+](=O)[O-])n1CC[N+](C)([O-])CCCCn1ccnc1[N+](=O)[O-] (stereo not given) | > 100 µM (inactive) | > 100 µM (inactive) | > 100 µM (inactive) | > 100 µM (inactive) | > 100 µM (inactive) | > 100 µM (inactive) | > 100 µM (inactive) | > 100 µM (inactive) | > 100 µM (inactive) | > 100 µM (inactive) | > 100 µM (inactive) | > 100 µM (inactive) | > 100 | > 100 µM (inactive) | > 100 µM (inactive) | > 100 µM (inactive) | > 100 µM (inactive) | > 100 µM (inactive) | > 100 µM (inactive) | > 100 µM (inactive)
CCC(C)C1NC(=O)C(NC(=O)C(CC(C)C)N(C)C(=O)[C@@H]2CC(O)CN2)C(C)OC(=O)[C@H](Cc2ccc(OC)cc2)N(C)C(=O)[C@@H]2CCCN2C(=O)[C@H](CC(C)C)NC(=O)C(C)C(=O)[C@H](C(C)C)OC(=O)CC1O (stereo not given in full) (H-[X10][ξNMeL][ξT][X11]LP[NMeY](Me); ester 3-C) | 0.011 µM (active) | 0.014 µM (active) | 0.01 µM (active) | 0.0121 µM (active) | < 0.001 µM (active) | 0.164 µM (active) | 0.00491 µM (active) | 0.0275 µM (active) | 0.00272 µM (active) | < 0.001 µM (active) | 0.00309 µM (active) | 0.0384 µM (active) | 0.472 | < 0.001 µM (active) | 0.0152 µM (active) | 0.00143 µM (active) | 0.0148 µM (active) | 0.232 µM (active) | 0.233 µM (active) | 0.00321 µM (active)
